From patent US9718825B2, “N-(4-(azaindazol-6-yl)-phenyl)-sulfonamides and their use as pharmaceuticals” (priority 2013, dated 2017)
Read-outs that look alike come from different tables or passages of the source.

Tests used:
[1] = biological target: recombinant human SGK-1 enzyme (Homo sapiens, UniProt O00141); test: Enzymatic activity assay: SGK-1 substrate peptide phosphorylation (Caliper lab-chip mobility shift); type: biochemical
Experimental: In one of the cellular assays, the SGK-1 dependent phosphorylation of glycogen synthase kinase 3beta (GSK3beta) in U2OS cells was measured, in another one, a functional electrophysiological assay, the SGK-1 dependent activation of epithelial Na^+ channel (ENaC) currents in A6 cell monolayers, and in another one chondrocyte hypertrophic differentiation in mouse chondrogenic ATDC5 cells.
A) Enzymatic Activity Assay
For the determination of the compound dose response, a 10 mM DMSO stock solution was diluted and tested in a ten-point, three-fold dilution series run in duplicate beginning at 30 μM final concentration. Data were analyzed using a four-parameter curve fit with a fixed minimum and maximum experimentally defined as the average positive and negative controls on each plate.

[2] = test system: SGK-1 dependent phosphorylation of GSK3beta in U2OS cells; test: SGK-1 dependent phosphorylation of GSK3beta in U2OS cells overexpressing recombinant SGK-1 and GSK3beta; type: cell-based, human; settings: U2OS cells, 6 h incubation, ratio of phosphorylated GSK3beta to total GSK3beta, read-out: IC50 values for inhibition of SGK-1 dependent phosphorylation of GSK3beta in U2OS cells
Experimental: B) Determination of the Effect on SGK-1 Dependent Phosphorylation of GSK3beta in U2OS Cells
U2OS cells were cultured in 1:1 Dulbecco modified Eagle medium/Ham's F12 and 10% heat-inactivated fetal calf serum (FCS Gold) at 37° C., 7% CO2 and 95% relative humidity. […] Cell suspension mixed with BacMam viruses was seeded in 96 well pCLEAR plates (Greiner) at 3×10^4 cells per well in 250 μl medium. […] 1 μl of a solution of the test compound at 250×final concentration was added. Cells are incubated at 37° C., 7% CO2 and 95% relative humidity. […] After removing the fixation solution, cells were permeabilised by adding 200 μl PBT (0.2% Triton X-100 in PBS) per well for 5 min. After removing PBT, cells were blocked by adding 200 μl of blocking solution (1% bovine serum albumine in PBS) per well. Blocking solution was removed and 50 μl of primary antibody (rabbit anti-phospho-GSK-3beta (Ser9), and mouse anti-GSK-3beta) were added for 1 h. […] After washing the cells 3 times with PBS, 200 μl of PBS were added. Fluorescence signals were measured with the ImageXpress MICRO (Molecular Devices).

[3] = peptide substrate 1 μM, ATP 10 μM, 60 min at 37° C., read-out: IC50 values for inhibition of SGK-1 enzymatic activity

Chain of recombinant human SGK-1 enzyme (O00141 whole entry, looked up): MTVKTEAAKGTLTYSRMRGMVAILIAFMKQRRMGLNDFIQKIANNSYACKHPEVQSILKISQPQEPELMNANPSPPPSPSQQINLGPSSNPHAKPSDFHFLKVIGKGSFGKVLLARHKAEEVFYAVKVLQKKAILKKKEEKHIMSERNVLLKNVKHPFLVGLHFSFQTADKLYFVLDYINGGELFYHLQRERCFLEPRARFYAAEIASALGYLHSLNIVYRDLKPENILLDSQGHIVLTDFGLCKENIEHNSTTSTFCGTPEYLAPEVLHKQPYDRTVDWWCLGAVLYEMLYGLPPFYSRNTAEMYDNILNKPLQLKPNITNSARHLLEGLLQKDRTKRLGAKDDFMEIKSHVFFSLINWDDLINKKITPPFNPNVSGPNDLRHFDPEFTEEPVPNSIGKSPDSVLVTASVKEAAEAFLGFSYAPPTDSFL

IC50 ([2]; Homo sapiens) [nM]	SMILES	IC50 [1, 3] [nM]	IC50 [2] [nM]	IC50 ([1]; read-out: IC50 values for inhibition of SGK-1 enzymatic activity, peptide substrate 1 μM, ATP 10 μM, 60 min at 37° C.) [nM]
	O=S(=O)(Nc1ccc(-c2nc(O[C@@H]3CCCC[C@@H]3O)c3cn[nH]c3n2)cc1)c1cc(Cl)ccc1F (racemic) [Example 81]	11	1700	
	Cc1n[nH]c2nc(-c3ccc(NS(=O)(=O)c4cc(Cl)ccc4F)cc3)ncc12 [Example 10]	< 1.2	430	
	O=S(=O)(Nc1ccc(-c2nc(N3CCNCC3)c3cn[nH]c3n2)cc1)c1cccc(Cl)c1Cl [Example 15]	< 1.2	870	
	O=S(=O)(Nc1ccc(-c2nc(N3CCNCC3)c3cn[nH]c3n2)cc1)c1cc(Cl)ccc1F [Example 16]	< 1.2	950	
	O=S(=O)(Nc1ccc(-c2nc(N3CCNCC3)c3cn[nH]c3n2)cc1)c1cc(Cl)ccc1Cl [Example 17]	< 1.2	810	
	O=S(=O)(Nc1ccc(-c2nc(Oc3cccnc3)c3cn[nH]c3n2)cc1)c1cc(Cl)ccc1F [Example 26]	< 1.2	2600	
	O=S(=O)(Nc1ccc(-c2nc(Oc3cccnc3)c3cn[nH]c3n2)cc1)c1cc(Cl)ccc1Cl [Example 27]	< 1.2	1900	
	O=S(=O)(Nc1ccc(-c2nc(OCCCCO)c3cn[nH]c3n2)cc1)c1cc(Cl)ccc1F [Example 35]	3.2	5700	
	CC(C)(CO)COc1nc(-c2ccc(NS(=O)(=O)c3cc(Cl)ccc3F)cc2)nc2[nH]ncc12 [Example 57]	8.3	500	
	O=S(=O)(Nc1ccc(-c2nc(OC3CCC(O)C3)c3cn[nH]c3n2)cc1)c1cc(Cl)ccc1Cl (stereo not drawn) [Example 60]	4	480	
	NCCCOc1nc(-c2ccc(NS(=O)(=O)c3cc(Cl)ccc3F)cc2)nc2[nH]ncc12 [Example 62]	< 1.2	450	
	NCCCOc1nc(-c2ccc(NS(=O)(=O)c3cc(Cl)ccc3Cl)cc2)nc2[nH]ncc12 [Example 63]	< 1.2	280	
	NCCCOc1nc(-c2ccc(NS(=O)(=O)c3cccc(Cl)c3Cl)cc2)nc2[nH]ncc12 [Example 64]	4.2	560	
	O=S(=O)(Nc1ccc(-c2nc(N3CCC(O)CC3)c3cn[nH]c3n2)cc1)c1cc(Cl)ccc1Cl [Example 74]	5.5	1200	
	O=S(=O)(Nc1ccc(-c2nc(OC3CCC(O)C3)c3cn[nH]c3n2)cc1)c1cc(Cl)ccc1F (stereo not drawn) [Example 75]	4.8	250	
	Cc1nc(-c2ccc(NS(=O)(=O)c3cc(Cl)ccc3Cl)cc2)nc2[nH]ncc12 [Example 76]	5.7	3000	
	O=S(=O)(Nc1ccc(-c2nc(N[C@H]3CC[C@@H](O)CC3)c3cn[nH]c3n2)cc1)c1cc(Cl)ccc1F [Example 77]	3.9	3600	

IC50 ([2]; Homo sapiens) [nM]	SMILES	IC50 [1, 3] [nM]	IC50 [2] [nM]	IC50 ([1]; read-out: IC50 values for inhibition of SGK-1 enzymatic activity, peptide substrate 1 μM, ATP 10 μM, 60 min at 37° C.) [nM]
	O=S(=O)(Nc1ccc(-c2nc(N[C@H]3CC[C@@H](O)CC3)c3cn[nH]c3n2)cc1)c1cc(Cl)ccc1Cl [Example 78]	3.6	2600	
	O=S(=O)(Nc1ccc(-c2nc(O[C@H]3CC[C@@H](O)CC3)c3cn[nH]c3n2)cc1)c1cc(Cl)ccc1Cl [Example 80]	< 1.5	450	
	O=S(=O)(Nc1ccc(-c2nc(O[C@H]3CCCC[C@H]3O)c3cn[nH]c3n2)cc1)c1cc(Cl)ccc1Cl [Example 82]	12	2100	
	O=S(=O)(Nc1ccc(-c2nc(O[C@H]3CCCC(O)C3)c3cn[nH]c3n2)cc1)c1cc(Cl)ccc1F (stereo partly drawn) [Example 84]	3.2	1200	
	O=S(=O)(Nc1ccc(-c2nc(O[C@H]3CCCC(O)C3)c3cn[nH]c3n2)cc1)c1cc(Cl)ccc1Cl (stereo partly drawn) [Example 85]	4.1	1500	
	CC(C)(O)CCCOc1nc(-c2ccc(NS(=O)(=O)c3cc(Cl)ccc3F)cc2)nc2[nH]ncc12 [Example 86]	11	1800	
	O=S(=O)(Nc1ccc(-c2nc(O[C@@H]3CCC[C@H]3O)c3cn[nH]c3n2)cc1)c1cc(Cl)ccc1F [Example 87]	6.8	4100	
50	CC(C)Oc1nc(-c2ccc(NS(=O)(=O)c3cc(Cl)ccc3F)c(F)c2)nc2[nH]nc(N)c12 [Example 444, N-[4-(3-Amino-4-isopropoxy-1H-pyrazolo[3,4-d]pyrimidin-6-yl)-2-fluoro-phenyl]-5-chloro-2-fluoro-benzenesulfonamide]			
340	Nc1n[nH]c2nc(-c3ccc(NS(=O)(=O)c4cc(Cl)c(F)cc4F)cc3)ncc12 [Example 445, N-[4-(3-Amino-1H-pyrazolo[3,4-d]pyrimidin-6-yl)-phenyl]-5-chloro-2,4-difluoro-benzenesulfonamide]			
4900	Cc1n[nH]c2nc(-c3ccc(NS(=O)(=O)c4cc(Cl)c(F)cc4F)cc3)ncc12 [Example 449, 5-Chloro-2,4-difluoro-N-[4-(3-methyl-1H-pyrazolo[3,4-d]pyrimidin-6-yl)-phenyl]-benzenesulfonamide]			
1800	COc1ccc(Cl)c(S(=O)(=O)Nc2ccc(-c3ncc4c(C)n[nH]c4n3)cc2F)c1 [Example 533, 2-Chloro-N-[2-fluoro-4-(3-methyl-1H-pyrazolo[3,4-d]pyrimidin-6-yl)-phenyl]-5-methoxy-benzenesulfonamide]			
3100	Cc1nc(-c2ccc(NS(=O)(=O)c3cc(Cl)ccc3Cl)cc2)nc2[nH]nc(NC(=O)C3CC(O)C3)c12 (stereo not drawn) [Example 536, 3-Hydroxy-cyclobutanecarboxylic acid {6-[4-(2,5-dichloro-benzenesulfonylamino)-phenyl]-4-methyl-1H-pyrazolo[3,4-d]pyrimidin-3-yl}-amide]			
73	Cc1nc(-c2ccc(NS(=O)(=O)c3cc(Cl)ccc3Cl)cc2)nc2[nH]nc(NC(=O)C3CCOCC3)c12 [Example 545, N-[6-[4-[(2,5-Dichlorophenyl)sulfonylamino]phenyl]-4-methyl-1H-pyrazolo[3,4-d]pyrimidin-3-yl]tetrahydropyran-4-carboxamide]			
1100	O=C(Nc1n[nH]c2nc(-c3ccc(NS(=O)(=O)c4cc(Cl)ccc4Cl)cc3)ncc12)C1CCNCC1 [Example 546, N-[6-[4-[(2,5-Dichlorophenyl)sulfonylamino]phenyl]-1H-pyrazolo[3,4-d]pyrimidin-3-yl]piperidine-4-carboxamide]			
4000	Cc1nc(-c2ccc(NS(=O)(=O)c3cc(Cl)ccc3Cl)cc2)nc2[nH]nc(NCC3CCOCC3)c12 [Example 547, 2,5-Dichloro-N-(4-{4-methyl-3-[(tetrahydro-pyran-4-ylmethyl)-amino]-1H-pyrazolo[3,4-d]pyrimidin-6-yl}-phenyl)-benzenesulfonamide]			
6400	Cc1ccc(C#N)c(S(=O)(=O)Nc2ccc(-c3cc4[nH]nc(N)c4cn3)cc2)c1 [Example 553, N-[4-(3-Amino-1H-pyrazolo[4,3-c]pyridin-6-yl)phenyl]-2-cyano-5-methyl-benzenesulfonamide]			
170	Nc1n[nH]c2nc(-c3ccc(NS(=O)(=O)c4cc(Cl)ccc4F)cc3)nc(C(F)(F)F)c12 [Example 568, N-[4-(3-Amino-4-trifluoromethyl-1H-pyrazolo[3,4-d]pyrimidin-6-yl)-phenyl]-5-chloro-2-fluoro-benzenesulfonamide]			

SMILES	IC50 ([2]; Homo sapiens) [nM]	IC50 [1, 3] [nM]	IC50 [2] [nM]	IC50 ([1]; read-out: IC50 values for inhibition of SGK-1 enzymatic activity, peptide substrate 1 μM, ATP 10 μM, 60 min at 37° C.) [nM]
Cc1n[nH]c2nc(-c3ccc(NS(=O)(=O)c4cc(Cl)ccc4Cl)cc3)ncc12 [Example 1, 2,5-Dichloro-N-[4-(3-methyl-1H-pyrazolo[3,4-d]pyrimidin-6-yl)-phenyl]-benzenesulfonamide]	830			< 1.2
